Where “and” joins values, the source holds several entries; their conditions need not be identical. Identical values can stand only once.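 Grown in 96-well plates, cells were treated for 48 hours with each compound at five concentrations. Insufficient inhibition: endpoint recorded as highest concentration tested. Abbreviation: GI50, concentration required for 50% inhibition of growth. TGI: total growth inhibition.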

Test in all cases: inhibition of tumour cell growth, NCI panel, 48 h
Test [1] relates to HCT-116 colon.
Test [2] concerns SF-539 CNS.
Test [3] concerns KM12 colon.
Test [4] deals with SF-295 CNS.
For test [5], the system named is MDA-MB-231 breast.
Test [6] relates to HS 578T breast.
In test [7] the test system is HCC-2998 colon.
Test [8] concerns SN12C renal.
Test [9] deals with U251 CNS.
The subject of test [10] is NCI-H226 lung.

`CN1C(=O)N[C@H]2[C@@H]3NC(=O)c4ccc(Br)n4[C@@H]3C[C@]21O`: the GI50 was 0.112 µM in test [1]; 0.0825 µM in test [2]; 0.191 µM in [3]; 0.273 µM in test [4]; 0.165 µM in [5]; 0.102 µM in [6]. The GI50 in test [7] is 0.13 µM; in [8], 0.106 µM; in test [9], 0.0714 µM; in test [10], 0.212 µM. The TGI in test [1] is 2.39 µM; in test [2] it was 0.447 µM; in test [3] it was 5.47 µM; in [4], 3.21 µM; in test [5], 2.69 µM; in test [6] it was 1.42 µM. In addition, the TGI in test [7] came out at 1.75 µM; in test [8], 2.19 µM; in test [9], 1.55 µM; in test [10], 2.64 µM.
In the case of `Cc1nc(N2CCC3(CC2)CO[C@@H](C)[C@H]3N)c(CO)nc1Sc1ccnc(N)c1Cl`, the GI50 in [1] is 59.7 µM; in [2], 7.43 µM; in test [3] it was 2.21 µM; in test [4], 26.6 µM; in test [5], > 100 µM; in test [6] it was 11 µM. Also, the GI50 was > 100 µM in test [7], 12.2 µM in test [8], 3.92 µM in test [9] and 2.14 µM in [10]. Besides, the TGI was > 100 µM in test [1]; > 100 µM in test [2]; > 100 µM in test [3]; > 100 µM in [4]; > 100 µM in [5]; 99.1 µM in test [6]. Also, the TGI in test [7], in test [8], in [9] and in test [10] was > 100 µM each time.
Turning to `COc1cccc(NC(=O)c2sc3nc4c(cc3c2N)C(=O)CCC4)c1`, the GI50 in test [1] is 0.0745 µM; in test [2], 0.108 µM; in [3], 0.0569 µM; in [4], 0.0818 µM; in test [5], 0.209 µM; in test [6], 0.0816 µM. Moreover, the GI50 is 0.279 µM in [7], 0.461 µM in test [8], 0.158 µM in test [9] and 2.18 µM in [10]. Further, the TGI is > 100 µM in test [1]; 0.587 µM in test [2]; > 100 µM in [3]; > 100 µM in test [4]; 7.59 µM in [5]; > 100 µM in test [6]. The TGI in test [7] is > 100 µM; in [8], > 100 µM; in [9], 10.4 µM; in test [10] it was > 100 µM.
As to `Cc1cc(C)c(NC(=S)NC(=O)c2ccccc2)cc1C`, the TGI in test [1], in test [2], in [3], in [4], in test [5] and in test [6] was > 100 µM each time. Also, the TGI in [7], in [8], in test [9] and in test [10] was > 100 µM each time.
Regarding `O=C(/C=C/c1ccccc1)n1c(-c2ccc(Cl)cc2)nc2ccccc21`, the GI50 was 1.21 µM in test [1]; 1.47 µM in [2]; 1.44 µM in [3]; 2.5 µM in test [4]; 1.88 µM in test [5]; 2.57 µM in test [6]. The GI50 in test [7] is 1.8 µM; in test [8] it was 1.39 µM; in test [9] it was 1.6 µM; in test [10] it was 2.17 µM. Besides, the TGI was 2.88 µM in test [1]; 2.92 µM in test [2]; 2.93 µM in [3]; 6.46 µM in test [4]; 5.18 µM in test [5]; 17.9 µM in [6]. For the same compound, the TGI in test [7] turned out to be 3.45 µM; in [8], 2.76 µM; in test [9], 3.22 µM; in [10], 6 µM.
For `Cc1ccc(C)c(C2NC(=O)c3ccccc3N2)c1` (stereo not given), the TGI in test [1] was 19.8 µM; in test [2] it was 3.07 µM; in [3] it was > 70.8 µM; in test [4] it was > 33.1 µM; in test [5], 72.7 µM; in [6], 7.73 µM. The TGI was 31.4 µM in [7], > 100 µM in [8], 17.9 µM in [9] and 20.5 µM in [10].
For the compound `Cc1sc2c(c1C)C(c1ccc(Cl)cc1)=N[C@@H](CC(=O)OC(C)(C)C)c1nnc(C)n1-2`, the GI50 is 0.44 µM and 0.311 µM in [1]; 0.639 µM and 0.462 µM in test [2]; 2.57 µM and 0.962 µM in [3]; 0.365 µM and 0.182 µM in test [4]; 0.714 µM and 0.304 µM in [5]; 0.139 µM and 0.0567 µM in test [6]. The GI50 in test [7] was 0.379 µM and 0.291 µM; in test [8], 8.65 µM and 1.95 µM; in test [9] it was 2.45 µM and 1.24 µM; in test [10] it was 2.81 µM and 10.3 µM. Further, the TGI was 16.4 µM and 15.4 µM in test [1]; 19.4 µM and 17.9 µM in [2]; 23.1 µM and 20.1 µM in test [3]; 18.2 µM and 15.5 µM in test [4]; 26 µM and 18.5 µM in test [5]; 18.4 µM and 18.1 µM in test [6]. The TGI was 13.8 µM and 14 µM in test [7]; 25.9 µM and 22 µM in [8]; 20.6 µM and 19 µM in test [9]; 22 µM and 22.8 µM in test [10].
Consider `CCCC(CCC)C(=O)OCC1(CO)C/C(=C\c2ccc(F)cc2)C(=O)O1` (stereo not given), for which the GI50 is 13.6 µM in [1]; 12 µM in test [2]; 13.9 µM in test [3]; 1.99 µM in test [4]; 6.98 µM in [5]; 14.3 µM in test [6]. Besides, the GI50 in [7] was 6.73 µM; in test [8], 12.4 µM; in [9] it was 8.07 µM; in [10], 11.7 µM. For the same compound, the TGI is 27.1 µM in [1]; 24.4 µM in test [2]; 27.5 µM in test [3]; 17.4 µM in test [4]; 23.9 µM in test [5]; 43.5 µM in test [6]. Also, the TGI in test [7] worked out at 19.8 µM; in test [8], 26.4 µM; in test [9], 23.4 µM; in [10], 32.3 µM.
With `O=C(O)C(Cl)(c1ccccc1)c1ccccc1`, the TGI in test [1], in [2], in [3], in [4], in test [5] and in test [6] was > 100 µM in each case. Also, the TGI in [7], in test [8], in test [9] and in [10] was > 100 µM each time.
As to `CCCCCCCCCCCCCCCCCC(=O)OCC(COC(=O)CCCN)OC(=O)CCCN` (stereo not given), the TGI in test [1] is 40.1 µM; in test [2] it was 32.2 µM; in [3], 33.5 µM; in test [4], 35.1 µM; in [5], 28.2 µM; in test [6] it was 43.7 µM. Besides, the TGI in [7] amounted to 35.9 µM; in test [8] it was 31.6 µM; in test [9], 40.8 µM; in test [10], 44.4 µM.
For the compound `COc1cccc(C2c3cc4c(cc3OC(N3CCCC3)C2C)OCO4)c1O` (stereo not given), the TGI in test [1] came out at 35 µM; in [2], 10.6 µM; in [3], 19.8 µM; in [4], 15.4 µM; in test [5] it was 45.8 µM; in [6], 18.5 µM. The TGI in test [7] turned out to be 46.9 µM; in test [8] it was 40.7 µM; in test [9] it was 25.8 µM; in test [10], 35.6 µM.
In the case of `OCC(O)c1nc2ccc3[nH]ncc3c2c2c1CCCC2` (stereo not given), the GI50 in [1] is 1.24 µM; in test [2], 0.957 µM; in test [3], 1.62 µM; in [4] it was 1.62 µM; in test [5], 1.75 µM; in test [6] it was 1.4 µM. The GI50 in test [7] was 1.07 µM; in test [8], 1.56 µM; in test [9], 1.65 µM; in [10], 0.971 µM. In addition, the TGI was > 50 µM in test [1]; 2.4 µM in test [2]; > 50 µM in test [3]; > 50 µM in [4]; > 50 µM in test [5]; 4.26 µM in test [6]. Moreover, the TGI in [7] is 2.89 µM; in test [8], > 50 µM; in test [9] it was > 50 µM; in [10], 2.83 µM.
As for `CC(C)(C)CC(C)(C)NCc1cc(C(C)(C)C)cc(CNC(C)(C)CC(C)(C)C)c1O`, the GI50 in test [1] is 2.1 µM; in [2], 5.16 µM; in test [3] it was 3.32 µM; in test [4], 3.23 µM; in test [5] it was 1.21 µM; in test [6] it was 3.22 µM. In addition, the GI50 in test [7] was 2.58 µM; in [8], 2.74 µM; in test [9], 2.86 µM; in test [10] it was 2.25 µM. In addition, the TGI in test [1] was 5.78 µM; in test [2], 17.8 µM; in test [3], 11.2 µM; in test [4] it was 11.7 µM; in test [5] it was 3.78 µM; in test [6], 20.7 µM. Also, the TGI came out at 8.07 µM in [7], 11.9 µM in [8], 12.2 µM in test [9] and 8.89 µM in test [10].
`Cn1c2ccc(Br)cc2c2c3c(c4c5ccccc5[nH]c4c21)C(=O)N(O)C3=O`: the GI50 in [1] was 0.112 µM; in [2] it was 0.073 µM; in [3], 0.237 µM; in test [4], 0.223 µM; in test [5], 0.21 µM; in test [6] it was 0.291 µM. The GI50 was 0.473 µM in [7], 0.0814 µM in test [8], 0.0865 µM in [9] and 1.06 µM in test [10]. The TGI in [1] was found to be 0.414 µM; in [2], 0.217 µM; in test [3], 0.902 µM; in test [4], 0.633 µM; in test [5], 0.607 µM; in test [6] it was 1.04 µM. Moreover, the TGI in test [7] is 1.57 µM; in test [8] it was 0.445 µM; in test [9], 0.266 µM; in test [10], 2.92 µM.
Consider `C=C1CCC2C(C)(COC(=O)CC)C(OC(=O)CC)CCC2(C)C1C/C=C1/C(=O)OCC1OC(=O)CC` (stereo not given), for which the GI50 is 1.14 µM in [1]; 1.84 µM in test [2]; 1.86 µM in test [3]; 1.7 µM in test [4]; 2.31 µM in test [5]; 3.41 µM in [6]. Also, the GI50 was 4.25 µM in test [7], 2.63 µM in [8], 1.3 µM in [9] and 2.13 µM in [10]. The TGI in test [1] is 2.55 µM; in test [2], 4.17 µM; in test [3], 3.75 µM; in test [4], 3.99 µM; in [5] it was 5.19 µM; in test [6] it was 25.5 µM. Also, the TGI in [7] is 13.9 µM; in [8], 10.1 µM; in test [9], 2.59 µM; in test [10], 4.1 µM.
As for `Nc1ccn(C2OC(COC(=O)C34CC5CC(CC(C5)C3)C4)C(O)C2O)c(=O)n1` (stereo not given), the TGI in test [1], in [2], in test [3], in [4], in test [5] and in test [6] was > 100 µM throughout. In addition, the TGI in [7], in test [8], in test [9] and in [10] was > 100 µM each time.
`COc1cc(Nc2nc3ccccc3cc2C(=O)Nc2ccc(F)c(F)c2)cc(OC)c1OC`: the GI50 is 2.84 µM in test [1]; 3.65 µM in test [2]; 2.89 µM in test [3]; 2.85 µM in [4]; 2.06 µM in [5]; 2.8 µM in test [6]. The GI50 in [7] was 4.19 µM; in test [8], 3.43 µM; in test [9], 3.36 µM; in [10], 2.55 µM. Also, the TGI in test [1] was 9.08 µM; in test [2], > 100 µM; in [3] it was 16 µM; in test [4], 10.2 µM; in test [5], 5.69 µM; in [6], 13.6 µM. The TGI was > 100 µM in test [7], > 100 µM in test [8], > 100 µM in test [9] and 7.93 µM in test [10].

The record behind these values is PubChem BioAssay (NCI).
